Laboratory results published in patent EP4332574A1, “SELF-ASSEMBLED CHEMOSENSORS FOR DETECTING POLYAMINES IN PHYSIOLOGICAL MEDIA AND BIOFLUIDS” (Karlsruher Institut für Technologie, priority 2022, dated 2024).

Experiments:
[1] = Host-dye fluorescence titration (quenching of dye emission on stepwise addition of host); type: binding; details: for binding affinity (Ka): host-dye binding interaction in surine, fluorescence monitored at 423 nm
From the text: Addition of the receptor host molecule to the dye solution results in a quenching of the dye emission upon the formation of the self-assembled P5AS-MDAP host-dye fluorescent chemosensor. Thereby, in the sensing assay, in the presence of polyamines, the dye is displaced from the host cavity resulting in a fluorescence "turn-on" signal. The involved processes show very fast binding kinetics and fast signal responses.

[2] = tested on: P5AS-MDAP host-dye chemosensor; experiment: Fluorescence turn-on indicator displacement sensing assay with P5AS-MDAP chemosensor in artificial media; type: binding; details: for relative fluorescence intensity changes monitored at 423 nm: addition of P5AS-MDAP
From the text: Thereby, in the sensing assay, in the presence of polyamines, the dye is displaced from the host cavity resulting in a fluorescence "turn-on" signal.
(§1) Fig. 2 Schematic illustration of established cation exchange reactions in systems wherein the known chemosensors become dysfunctional in biologically relevant media such as PBS or urine. At high salt concentrations, the signalling binding pockets of the receptor host molecule are occupied by salts and are no longer available for the detection of relevant analytes. Moreover, chemosensors self-assembled from a receptor host and dye molecules decompose at high salt concentrations as the dye is pushed out of the receptor by the salts. Fig. 3 • (a) Chemical structure of the preferred host molecule P5AS. • (b) Chemical structure of the preferred dye molecule MDAP. • (c) Chemical structure of the preferred dye molecule BrDAP. […] Fig. 8 Relative fluorescence intensity changes monitored at 433 nm on addition of P5AS-BrDAP chemosensor (21.6 µM) to • (a) human urine samples collected from four healthy individuals (diluted two times) and later spiked with several polyamines and polyamine mixtures (each at 5 µM) in order to simulate urine from diseased patients and • (b) human saliva sample collected from a healthy individual (undiluted) and later spiked with several polyamines and polyamine mixtures (each at 5 µM) in order to simulate saliva from diseased patients (microplate reader assay). […] Fig. 9 Relative fluorescence intensity changes monitored at 423 nm upon addition of • (a) P5AS-MDAP host-dye chemosensor and • (b) P5AS-BrDAP host-dye chemosensor to a solution of spermine (spm, 3.3 µM) in neurobasal™ medium.

[3] = tested on: P5AS-BrDAP host-dye chemosensor; experiment: Fluorescence turn-on indicator displacement sensing assay with P5AS-BrDAP chemosensor in artificial media; type: binding; details: addition of P5AS-BrDAP
[4] = tested on: P5AS-BrDAP chemosensor; details: chemosensor 21.6 µM; human urine (diluted two times) and saliva (undiluted), spiked each at 5 µM
From the text: as §1, with “salts.” for “salts. Fig. 3 • (a) Chemical structure of the preferred host molecule P5AS. • (b) Chemical structure of the preferred dye molecule MDAP. • (c) Chemical structure of the preferred dye molecule BrDAP.”

[5] = spermine 3.3 µM in neurobasal medium

| binding affinity (Ka) [1] | relative fluorescence intensity changes monitored at 423 nm ([2]; polyamine 3.3 µM in surine) | Structure (SMILES) | relative fluorescence intensity changes monitored at 423 nm ([3]; polyamine 3.3 µM in surine) | also measured |
| --- | --- | --- | --- | --- |
| 4.9e+06 M⁻¹ |  | C[n+]1cc2ccc3c[n+](C)cc4ccc(c1)c2c34 [MDAP, N,N'-dimethyl-2,7-diazapyrenium dication] |  |  |
|  | strong fluorescence enhancement | NCCCCNCCCN [spermidine] | no significant fluorescence signal change |  |
|  | strong fluorescence enhancement | NCCCNCCCCNCCCN [spermine] | strong fluorescence enhancement | relative fluorescence intensity changes monitored at 423 nm [2, 5]: strong fluorescence enhancement; time to fluorescence signal turn-on (displacement of MDAP from the host) ([2]; spermine 5.1 µM added to P5AS-MDAP in surine, 423 nm): within a few milliseconds; relative fluorescence intensity changes monitored at 423 nm [3, 5]: strong fluorescence enhancement; relative fluorescence intensity changes monitored at 433 nm, spiked versus healthy samples [4]: clear distinction between the fluorescence signal outputs |
| 4.5e+08 M⁻¹ |  | BrCCCC[n+]1cc2ccc3c[n+](CCCCBr)cc4ccc(c1)c2c34 [BrDAP, N,N'-bis(4-bromobutyl)-2,7-diazapyrenium dication] |  | stronger binding affinity for P5AS compared to MDAP [1]: 10^2 times; binding affinity towards P5AS ([1]; order of magnitude, Figure 7a experiments in surine): 10^8 M^-1 |
|  | strong fluorescence enhancement | NCCCCCN [cadaverine] | no significant fluorescence signal change |  |

| Structure (SMILES) | binding affinity (Ka) [1] | relative fluorescence intensity changes monitored at 423 nm ([2]; polyamine 3.3 µM in surine) | relative fluorescence intensity changes monitored at 423 nm ([3]; polyamine 3.3 µM in surine) | also measured |
| --- | --- | --- | --- | --- |
| NCCCCN [Putrescine, putrescine] |  | does not give rise to any changes in the fluorescence intensity |  |  |
